Measured values taken from ChEMBL document CHEMBL5131386, “Synthesis and biological evaluation of novel schisanhenol derivatives as potential hepatoprotective agents” (Eur J Med Chem, 2022).
Calls of active or inactive are those of the source. The calls are words filed in the database; no cut-off is given here.

Tests used:
L02 [1] = assay: Hepatoprotective activity against concanavalin A induced liver injury in human HL7702 cells assessed as cell survival rate at 5 uM preincubated for 12 hrs followed by concanavalin A stimulation for 12 hrs by MTT assay (reference value: 51.37%); assay type: functional; conditions: time 24 hrs, read-out: Survival
L02 [2] = assay: Hepatoprotective activity against concanavalin A induced livery injury in human HL7702 cells assessed as decrease in JAK2 phosphorylation level at 5 uM preincubated for 12 hrs followed by concanavalin A stimulation for 12 hrs by Western blot analysis; assay type: functional, cell-based; conditions: time 24.0 hrs
Mus musculus [3] = assay: Hepatoprotective activity against concanavalin A induced C57BL/6 mouse livery injury model assessed as decrease in phosphorylated STAT3 level in liver at 5 mg/kg, ip once daily for 2 weeks followed by concanavalin A stimulation and measured after 12 hrs by DAB staining based immunohistological anlaysis; assay type: functional, organism-based
Mus musculus [4] = assay: Hepatoprotective activity against concanavalin A induced C57BL/6 mouse livery injury model assessed as increase in Bcl-2 level at 5 mg/kg, ip once daily for 2 weeks followed by concanavalin A stimulation and measured after 12 hrs by Western blot analysis; assay type: functional, organism-based
Mus musculus [5] = assay: Hepatoprotective activity against concanavalin A induced C57BL/6 mouse livery injury model assessed as decrease in JAK2 phosphorylation level at 5 mg/kg, ip once daily for 2 weeks followed by concanavalin A stimulation and measured after 12 hrs by Western blot analysis; assay type: functional, organism-based
Mus musculus [6] = assay: Hepatoprotective activity against concanavalin A induced C57BL/6 mouse livery injury model assessed as decrease in cleaved caspase-3 level in liver at 5 mg/kg, ip once daily for 2 weeks followed by concanavalin A stimulation and measured after 12 hrs by DAB staining based immunohistological anlaysis; assay type: functional, organism-based
Mus musculus [7] = assay: Hepatoprotective activity against concanavalin A induced C57BL/6 mouse livery injury model assessed as decrease in Bax level at 5 mg/kg, ip once daily for 2 weeks followed by concanavalin A stimulation and measured after 12 hrs by Western blot analysis; assay type: functional, organism-based
L02 [8] = assay: Cytotoxicity against human HL7702 cells ssessed as cell survival rate at 5 uM for 12 hrs by MTT assay; assay type: toxicity, cell-based; conditions: l02, 12 h
L02 [9] = assay: Hepatoprotective activity against concanavalin A induced human HL7702 cell apoptosis assessed as increase in Bcl-2 expression level at 5 uM preincubated for 12 hrs followed by concanavalin A stimulation for 12 hrs by Western blot analysis; assay type: functional, cell-based; conditions: time 24.0 hrs
L02 [10] = assay: Hepatoprotective activity against concanavalin A induced human HL7702 cell apoptosis assessed as decrease in cleaved caspase-3 level at 5 uM preincubated for 12 hrs followed by concanavalin A stimulation for 12 hrs by Western blot analysis; assay type: functional, cell-based; conditions: time 24.0 hrs
L02 [11] = assay: Hepatoprotective activity against concanavalin A induced livery injury in human HL7702 assessed as decrease in IL-6 expression level at 5 uM preincubated for 24 hrs followed by concanavalin A stimulation for 12 hrs by ELISA assay; assay type: functional, cell-based; conditions: time 36.0 hrs
Mus musculus [12] = assay: Hepatoprotective activity against concanavalin A induced C57BL/6 mouse livery injury model assessed as decrease in serum IL-6 level at 5 mg/kg, ip once daily for 2 weeks followed by concanavalin A stimulation and measured after 12 hrs by ELISA; assay type: functional, organism-based
L02 [13] = assay: Hepatoprotective activity against concanavalin A induced human HL7702 cell apoptosis assessed as decrease in Bax expression level at 5 uM preincubated for 12 hrs followed by concanavalin A stimulation for 12 hrs by Western blot analysis; assay type: functional, cell-based; conditions: time 24.0 hrs
L02 [14] = assay: Hepatoprotective activity against concanavalin A induced human HL7702 cell apoptosis assessed as nuclear morphological changes at 5 uM preincubated for 12 hrs followed by concanavalin A stimulation for 12 hrs by Hoechst 33342 staining based fluorescence microscopy; assay type: functional; conditions: time 24.0 hrs
L02 [15] = assay: Hepatoprotective activity against concanavalin A induced livery injury in human HL7702 cells assessed as decrease in STAT3 phosphorylation level at 5 uM preincubated for 12 hrs followed by concanavalin A stimulation for 12 hrs by Western blot analysis; assay type: functional, cell-based; conditions: time 24.0 hrs
Mus musculus [16] = assay: Hepatoprotective activity against concanavalin A induced C57BL/6 mouse livery injury model assessed as decrease in STAT3 phosphorylation level at 5 mg/kg, ip once daily for 2 weeks followed by concanavalin A stimulation and measured after 12 hrs by Western blot analysis; assay type: functional, organism-based
Mus musculus [17] = assay: Hepatoprotective activity against concanavalin A induced C57BL/6 mouse livery injury model assessed as decrease in serum AST level at 5 mg/kg, ip once daily for 2 weeks followed by concanavalin A stimulation and measured after 12 hrs; assay type: functional, organism-based
L02 [18] = assay: Hepatoprotective activity against concanavalin A induced livery injury in human HL7702 assessed as decrease in IL-6 expression level at 5 uM preincubated for 12 hrs followed by concanavalin A stimulation for 12 hrs by Western blot analysis; assay type: functional, cell-based; conditions: time 24.0 hrs
Mus musculus [19] = assay: Hepatoprotective activity against concanavalin A induced C57BL/6 mouse livery injury model assessed as decrease in serum ALT level at 5 mg/kg, ip once daily for 2 weeks followed by concanavalin A stimulation and measured after 12 hrs; assay type: functional, organism-based
Mus musculus [20] = assay: Hepatoprotective activity against concanavalin A induced C57BL/6 mouse livery injury model assessed as decrease in severity of liver damage at 5 mg/kg, ip once daily for 2 weeks followed by concanavalin A stimulation and measured after 12 hrs by H&E staining based […]; assay type: functional, organism-based
Mus musculus [21] = assay: Hepatoprotective activity against concanavalin A induced C57BL/6 mouse livery injury model assessed as decrease in cleaved caspase 3 level at 5 mg/kg, ip once daily for 2 weeks followed by concanavalin A stimulation and measured after 12 hrs by Western blot analysis; assay type: functional, organism-based
L02 [22] = assay: Hepatoprotective activity against concanavalin A induced livery injury in human HL7702 cells assessed as increase in HO-1 expression level at 5 uM preincubated for 12 hrs followed by concanavalin A stimulation for 12 hrs by Western blot analysis; assay type: functional, cell-based; conditions: time 24.0 hrs

COc1cc2c(c(OC)c1OC)-c1c(O)c(OC)c(OC)c([N+](=O)[O-])c1CC(C)C(C)C2 (stereo not drawn)
viability at 5 µM (L02 [1]): 70.2%

COc1c(Cl)c2c(c(OC)c1OC)-c1c(c(Cl)c(OC)c(OC)c1OCCCO)CC(C)C(C)C2 (stereo not drawn)
viability at 5 µM (L02 [1]): 67.1%

COc1c(Cl)c2c(c(OC)c1OC)-c1c(c(Cl)c(OC)c(OC)c1OS(=O)(=O)Cc1ccccc1)CC(C)C(C)C2 (stereo not drawn)
viability at 5 µM (L02 [1]): 71.4%

COc1c(Cl)c2c(c(OC)c1OC)-c1c(c(Cl)c(OC)c(OC)c1OC(=O)c1ccc(Cl)cc1Cl)CC(C)C(C)C2 (stereo not drawn)
viability at 5 µM (L02 [1]): 68%

COc1cc2c(c(OC)c1OC)-c1c(c(Cl)c(OC)c(OC)c1OC(=O)c1ccc(C(F)(F)F)cc1)CC(C)C(C)C2 (stereo not drawn)
viability at 5 µM (L02 [1]): 61.8%

COc1ccc(C(=O)Oc2c(OC)c(OC)c(Cl)c3c2-c2c(c(Cl)c(OC)c(OC)c2OC)CC(C)C(C)C3)cc1 (stereo not drawn)
viability at 5 µM (L02 [1]): 53.6%

COc1cc2c(c(OC)c1OC)-c1c(c(Cl)c(OC)c(OC)c1OC(=O)/C=C/c1ccccc1)CC(C)C(C)C2 (stereo not drawn)
Activity (L02 [2]): Active
Activity (Mus musculus [3]): Active
Activity (Mus musculus [4]): Active
Activity (Mus musculus [5]): Active
Activity (Mus musculus [6]): Active
Activity (Mus musculus [7]): Active
Activity (L02 [8]): Non-Toxic
Activity (L02 [9]): Active
Activity (L02 [10]): Active
Activity (L02 [11]): Active
Activity (Mus musculus [12]): Active
Activity (L02 [13]): Active
Activity (L02 [14]): Active
viability at 5 µM (L02 [1]): 110%
Activity (L02 [15]): Active
Activity (Mus musculus [16]): Active
Activity (Mus musculus [17]): Active
Activity (L02 [18]): Active
Activity (Mus musculus [19]): Active
Activity (Mus musculus [20]): Active
Activity (Mus musculus [21]): Active
Activity (L02 [22]): Active

COc1cc2c(c(OC)c1OC)-c1c(O)c(OC)c(OC)c(Cl)c1CC(C)C(C)C2 (stereo not drawn)
viability at 5 µM (L02 [1]): 72.5%

COc1c(Cl)c2c(c(OC)c1OC)-c1c(c(Cl)c(OC)c(OC)c1OCCCOC(=O)C(CCSC)NC(=O)OC(C)(C)C)CC(C)C(C)C2 (stereo not drawn)
Activity (L02 [8]): Non-Toxic
Activity (L02 [9]): Active
Activity (L02 [10]): Active
Activity (L02 [13]): Active
Activity (L02 [14]): Active
viability at 5 µM (L02 [1]): 90.8%

COc1c(O)c2c(c(Cl)c1OC)CC(C)C(C)Cc1c(Cl)c(OC)c(OC)c(OC)c1-2 (stereo not drawn)
viability at 5 µM (L02 [1]): 67.3%

COc1c(Cl)c2c(c(OC)c1OC)-c1c(c(Cl)c(OC)c(OC)c1OC(=O)c1ccc(C(F)(F)F)cc1)CC(C)C(C)C2 (stereo not drawn)
viability at 5 µM (L02 [1]): 65.1%

COc1cc2c(c(OC)c1OC)-c1c(c(Cl)c(OC)c(OC)c1OCCCOC(=O)/C=C/c1ccccc1)CC(C)C(C)C2 (stereo not drawn)
viability at 5 µM (L02 [1]): 71%
